Measurements published in ChEMBL document CHEMBL5126553, “Dentithecamides A-H, Diacylated Zoanthoxanthin Derivatives with PAX3-FOXO1 Inhibitory Activity from the Hydroid Dentitheca habereri” (J Nat Prod, 2022).
Activity calls are given as the source filed them. The calls are words filed in the database; no cut-off is given here.

Assays:
[1] = Cytotoxicity against human Rh4 cells transfected with CMV-Luc construct assessed as inhibition of cell growth at 100 uM by luciferase assay; format: toxicity, cell-based; settings: rh4, 100 µM
PAX3/FOXO1 = PAX3/FOXO1 (Homo sapiens, UniProt P23760+Q12778); assay: Inhibition of PAX3-FOXO1 driven transcriptional activity in human Rh4 cells transfected with ALK-Luc construct incubated for 24 hrs by luciferase assay; format: cell-based
PAX3/FOXO1, sequence (Q12778 whole entry): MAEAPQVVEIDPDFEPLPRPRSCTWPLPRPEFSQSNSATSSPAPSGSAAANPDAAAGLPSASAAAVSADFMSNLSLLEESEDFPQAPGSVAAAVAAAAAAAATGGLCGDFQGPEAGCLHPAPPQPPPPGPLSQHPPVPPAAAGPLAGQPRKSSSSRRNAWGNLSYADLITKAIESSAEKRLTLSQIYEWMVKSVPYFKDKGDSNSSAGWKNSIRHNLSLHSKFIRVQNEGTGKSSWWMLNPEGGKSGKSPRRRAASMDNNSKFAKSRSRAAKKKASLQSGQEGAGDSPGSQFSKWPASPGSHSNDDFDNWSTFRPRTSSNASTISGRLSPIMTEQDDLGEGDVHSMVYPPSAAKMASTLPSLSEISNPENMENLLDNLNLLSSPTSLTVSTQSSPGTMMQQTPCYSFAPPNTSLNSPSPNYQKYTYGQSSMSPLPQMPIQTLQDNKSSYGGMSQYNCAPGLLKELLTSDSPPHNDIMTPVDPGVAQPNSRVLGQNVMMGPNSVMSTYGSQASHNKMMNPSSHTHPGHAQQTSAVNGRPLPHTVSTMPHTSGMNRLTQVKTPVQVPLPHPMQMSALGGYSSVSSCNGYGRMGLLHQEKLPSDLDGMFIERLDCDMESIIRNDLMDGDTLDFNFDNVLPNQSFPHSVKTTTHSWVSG
PAX3/FOXO1, sequence (P23760 whole entry): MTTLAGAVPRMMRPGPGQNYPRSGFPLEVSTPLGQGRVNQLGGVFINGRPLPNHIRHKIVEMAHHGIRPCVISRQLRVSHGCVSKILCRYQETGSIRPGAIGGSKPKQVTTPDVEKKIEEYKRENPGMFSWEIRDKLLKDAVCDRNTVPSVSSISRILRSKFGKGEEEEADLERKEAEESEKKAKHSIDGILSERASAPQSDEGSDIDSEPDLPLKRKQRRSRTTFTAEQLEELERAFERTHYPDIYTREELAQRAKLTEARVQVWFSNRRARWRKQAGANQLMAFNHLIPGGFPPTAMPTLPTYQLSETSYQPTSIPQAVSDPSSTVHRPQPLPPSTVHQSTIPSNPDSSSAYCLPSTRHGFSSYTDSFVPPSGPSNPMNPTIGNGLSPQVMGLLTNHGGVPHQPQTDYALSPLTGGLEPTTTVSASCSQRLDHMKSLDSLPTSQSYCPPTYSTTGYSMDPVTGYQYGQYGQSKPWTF

[2] = target: T1, PAX3/FOXO1 (Homo sapiens) (UniProt Q12778+P23760); assay: Inhibition of PAX3-FOXO1 driven transcriptional activity in human Rh4 cells assessed as upregulation of BCL2L1 gene expression at 20 uM incubated for 6 hrs by GSEA analysis; format: cell-based
T1 sequence (P23760 whole entry, looked up): as the sequence (P23760 whole entry) above
T1 sequence (Q12778 whole entry, looked up): as the sequence (Q12778 whole entry) above

[3] = target: T1, PAX3/FOXO1 (Homo sapiens); assay: Inhibition of PAX3-FOXO1 driven transcriptional activity in human Rh4 cells assessed as upregulation of KIT gene expression at 20 uM incubated for 6 hrs by GSEA analysis; format: cell-based
[4] = target: T1, PAX3/FOXO1 (Homo sapiens); assay: Inhibition of PAX3-FOXO1 driven transcriptional activity in human Rh4 cells assessed as upregulation of TNFRSF12A gene expression at 20 uM incubated for 6 hrs by GSEA analysis; format: cell-based
[5] = target: T1, PAX3/FOXO1 (Homo sapiens); assay: Inhibition of PAX3-FOXO1 driven transcriptional activity in human Rh4 cells assessed as upregulation of LBH gene expression at 20 uM incubated for 6 hrs by GSEA analysis; format: cell-based
[6] = target: T1, PAX3/FOXO1 (Homo sapiens); assay: Inhibition of PAX3-FOXO1 driven transcriptional activity in human Rh4 cells assessed as upregulation of DGKD gene expression at 20 uM incubated for 6 hrs by GSEA analysis; format: cell-based
[7] = target: T1, PAX3/FOXO1 (Homo sapiens); assay: Inhibition of PAX3-FOXO1 driven transcriptional activity in human Rh4 cells assessed as upregulation of TIMP3 gene expression at 20 uM incubated for 6 hrs by GSEA analysis; format: cell-based
[8] = target: T1, PAX3/FOXO1 (Homo sapiens); assay: Inhibition of PAX3-FOXO1 driven transcriptional activity in human Rh4 cells assessed as upregulation of SERPINE1 gene expression at 20 uM incubated for 6 hrs by GSEA analysis; format: cell-based
[9] = target: T1, PAX3/FOXO1 (Homo sapiens); assay: Inhibition of PAX3-FOXO1 driven transcriptional activity in human Rh4 cells assessed as upregulation of IL-11 gene expression at 20 uM incubated for 6 hrs by GSEA analysis; format: cell-based
[10] = target: T1, PAX3/FOXO1 (Homo sapiens); assay: Inhibition of PAX3-FOXO1 driven transcriptional activity in human Rh4 cells assessed as upregulation of GADD45B gene expression at 20 uM incubated for 6 hrs by GSEA analysis; format: cell-based
[11] = target: T1, PAX3/FOXO1 (Homo sapiens); assay: Inhibition of PAX3-FOXO1 driven transcriptional activity in human Rh4 cells assessed as upregulation of KLF10 gene expression at 20 uM incubated for 6 hrs by GSEA analysis; format: cell-based
[12] = target: T1, PAX3/FOXO1 (Homo sapiens); assay: Inhibition of PAX3-FOXO1 driven transcriptional activity in human Rh4 cells assessed as upregulation of VEGFA gene expression at 20 uM incubated for 6 hrs by GSEA analysis; format: cell-based
[13] = target: T1, PAX3/FOXO1 (Homo sapiens); assay: Inhibition of PAX3-FOXO1 driven transcriptional activity in human Rh4 cells assessed as upregulation of SOX9 gene expression at 20 uM incubated for 6 hrs by GSEA analysis; format: cell-based
Rh4 = assay: Upregulation of TNF gene expression in human Rh4 cells; format: functional, cell-based
[14] = target: T1, PAX3/FOXO1 (Homo sapiens); assay: Inhibition of PAX3-FOXO1 driven transcriptional activity in human Rh4 cells assessed as upregulation of EPHA2 gene expression at 20 uM incubated for 6 hrs by GSEA analysis; format: cell-based
[15] = target: T1, PAX3/FOXO1 (Homo sapiens); assay: Inhibition of PAX3-FOXO1 driven transcriptional activity in human Rh4 cells assessed as upregulation of ID1 gene expression at 20 uM incubated for 6 hrs by GSEA analysis; format: cell-based

## CC[C@H](C)C(=O)Nc1nc2c([nH]1)C(C)c1[nH]c(NC(=O)/C=C/c3ccccc3)nc1CC2 (stereo partly specified)
[1]
  Activity: Toxic
PAX3/FOXO1
  IC50: 42 µM

## CC[C@H](C)C(=O)Nc1nc2c([nH]1)C(C)c1[nH]c(NC(=O)c3ccccc3)nc1CC2 (stereo partly specified)
[1]
  Activity: Toxic
PAX3/FOXO1
  IC50: 26 µM

## CC(C)=CC(=O)Nc1nc2c([nH]1)C(C)c1[nH]c(NC(=O)c3ccccc3)nc1CC2 (stereo unspecified)
[2]
  inhibition: Active
[3]
  inhibition: Active
[4]
  inhibition: Active
[5]
  inhibition: Active
[6]
  inhibition: Active
[7]
  inhibition: Active
[8]
  inhibition: Active
[9]
  inhibition: Active
[10]
  inhibition: Active
[1]
  Activity: Toxic
[11]
  inhibition: Active
[12]
  inhibition: Active
[13]
  inhibition: Active
Rh4
  Activity: Active
PAX3/FOXO1
  IC50: 17 µM
[14]
  inhibition: Active
[15]
  inhibition: Active

## CC1c2[nH]c(NC(=O)c3ccccc3)nc2CCc2nc(NC(=O)c3ccccc3)[nH]c21
[1]
  Activity: Toxic
Rh4
  Activity: Active
PAX3/FOXO1
  IC50: 13 µM

## CC(C)C(=O)Nc1nc2c([nH]1)C(C)c1[nH]c(NC(=O)c3ccccc3)nc1CC2 (stereo unspecified)
[1]
  Activity: Toxic
PAX3/FOXO1
  IC50: 67 µM
